# Active and inactive are the calls of the source. The calls are words filed in the database; no cut-off is given here.
# Columns and labels:
# Mitochondria [1] = test: Antioxidant activity in goat cardiac mitochondria assessed as inhibition of CuCl2/ascorbic acid-induced manganese superoxide dismutase at 33 uM after 1 hr by pyrogallol autoxidation method relative to control; format: functional, subcellular; conditions: Capra hircus, Heart, Mitochrondria
# Capra hircus [2] = species on record: Capra hircus; test: Effect on PDH in goat cardiac mitochondria assessed as reversal of CuCl2/ascorbic acid induced reduction in Km at 66 uM using sodium pyruvate as substrate after 1 hr by Lineweaver-Burk double reciprocal plot analysis; conditions: Heart
# [3] = Inhibition of ICDH in goat cardiac mitochondria assessed as effect on Vmax at 66 uM using isocitrate as substrate after 1 hr by Lineweaver-Burk double reciprocal plot analysis; design: species or system Capra hircus, Heart
# [4] = Binding affinity to Cu2+ assessed as binding constant K1 at 66 uM in presence of CuCl2 by isothermal titration calorimetry
# Mitochondria [5] = test: Antioxidant activity in goat cardiac mitochondria assessed as reversal of CuCl2/ascorbic acid-induced reduction in GSH level at 66 uM after 1 hr by DTNB reagent based method relative to control; format: functional, subcellular; conditions: Capra hircus, Heart, Mitochrondria
# [6] = Binding affinity to ascorbate at 66 uM in presence of ascorbic acid by isothermal titration calorimetry
# Mitochondria [7] = test: Antioxidant activity in goat cardiac mitochondria assessed as inhibition of CuCl2/ascorbic acid-induced lipid peroxidation at 33 uM after 1 hr by thiobarbituric acid based UV-Visible spectrophotometric method (reference value: 60.11%); format: functional, subcellular; conditions: Capra hircus, Heart, Mitochrondria
# Capra hircus [8] = species on record: Capra hircus; test: Effect on alpha-ketoglutarate dehydrogenase in goat cardiac mitochondria assessed as reversal of CuCl2/ascorbic acid induced reduction in Km at 66 uM using alpha-ketoglutarate as substrate after 1 hr by Lineweaver-Burk double reciprocal plot analysis; conditions: Heart
# Mitochondria [9] = test: Antioxidant activity in goat cardiac mitochondria assessed as reversal of CuCl2/ascorbic acid-induced reduction in alpha-KGDH level at 16.5 uM using alpha-ketoglutarate as substrate after 1 hr (reference value: 69.78%); format: functional, subcellular; design: scale not given: the % may be the effect or the level left; conditions: Capra hircus, Heart, Mitochrondria
# Mitochondria [10] = test: (§1) Protective activity against CuCl2/ascorbic acid-induced apoptotic alteration in goat cardiac mitochondria assessed as reversal of CuCl2/ascorbic acid-induced reduction in cytochrome c oxidase activity incubated for 1 hr and measured at 10 secs time interval for 90 secs by spectrophotometric analysis; format: functional, subcellular; conditions: Capra hircus; Heart; Mitochrondria
# Mitochondria [11] = test: Antioxidant activity in goat cardiac mitochondria assessed as reversal of CuCl2/ascorbic acid-induced reduction in ICDH level at 66 uM using isocitrate as substrate after 1 hr relative to control; format: functional, subcellular; conditions: Capra hircus, Heart, Mitochrondria
# Mitochondria [12] = test: Antioxidant activity in goat cardiac mitochondria assessed as reversal of CuCl2/ascorbic acid-induced reduction in SDH level at 16.5 uM using succinate as substrate after 1 hr by spectrophotometric analysis relative to control; format: functional, subcellular; conditions: Capra hircus, Heart, Mitochrondria
# Mitochondria [13] = test: Antioxidant activity in goat cardiac mitochondria assessed as inhibition of CuCl2/ascorbic acid-induced protein carbonyl content at 33 uM after 1 hr by DNPH assay relative to control; format: functional, subcellular; conditions: Capra hircus, Heart, Mitochrondria
# Mitochondria [14] = test: Antioxidant activity in goat cardiac mitochondria assessed as reversal of CuCl2/ascorbic acid-induced reduction in PDH level at 66 uM using sodium pyruvate as substrate after 1 hr by spectrophotometric analysis relative to control; format: functional, subcellular; conditions: Capra hircus, Heart, Mitochrondria
# Mitochondria [15] = test: Antioxidant activity in goat cardiac mitochondria assessed as reversal of CuCl2/ascorbic acid-induced reduction in PDH level at 33 uM using sodium pyruvate as substrate after 1 hr by spectrophotometric analysis relative to control; format: functional, subcellular; conditions: Capra hircus, Heart, Mitochrondria
# [16] = Binding affinity to Cu2+ assessed as binding constant K4 at 66 uM in presence of CuCl2 by isothermal titration calorimetry
# Mitochondria [17] = test: Protective activity against CuCl2/ascorbic acid-induced apoptotic alteration in goat cardiac mitochondria assessed as reversal of CuCl2/ascorbic acid-induced reduction in cytochrome c oxidoreductase activity at 66 uM incubated for 1 hr and measured at 10 secs time interval for 90 secs by spectrophotometric analysis (reference value: 47.82%); format: functional, subcellular; design: scale not given: the % may be the effect or the level left; conditions: Capra hircus, Heart, Mitochrondria
# Capra hircus [18] = species on record: Capra hircus; test: Effect on ICDH in goat cardiac mitochondria assessed as reversal of CuCl2/ascorbic acid induced reduction in Km at 66 uM using isocitrate as substrate after 1 hr by Lineweaver-Burk double reciprocal plot analysis; conditions: Heart
# [19] = Reducing power of the compound assessed as reducing Fe3+ power at 80 uM using K3Fe(CN)6 in pH 6.6 phosphate buffer after 20 mins by spectrophotometric analysis
# [20] = Antioxidant activity in pH 7.4 phosphate buffer assessed as DPPH radical scavenging activity by measuring trolox equivalent antioxidant capacity by measuring IC50 Trolox/IC50 test compound ratio after 30 mins by spectrophotometric analysis; format: functional
# Mitochondria [21] = test: Antioxidant activity in goat cardiac mitochondria assessed as inhibition of CuCl2/ascorbic acid-induced manganese superoxide dismutase at 66 uM after 1 hr by pyrogallol autoxidation method relative to control; format: functional, subcellular; conditions: Capra hircus, Heart, Mitochrondria
# Mitochondria [22] = test: Antioxidant activity in goat cardiac mitochondria assessed as reversal of CuCl2/ascorbic acid-induced reduction in SDH level at 8.25 uM using succinate as substrate after 1 hr by spectrophotometric analysis (reference value: 71.51%); format: functional, subcellular; design: scale not given: the % may be the effect or the level left; conditions: Capra hircus, Heart, Mitochrondria
# [23] = Antioxidant activity in pH 10 Tris-HCl buffer assessed as superoxide anion radical scavenging activity by measuring rate of epinephrine auto-oxidation by spectrophotometric analysis; format: functional
# Mitochondria [24] = test: Antioxidant activity in goat cardiac mitochondria assessed as inhibition of CuCl2/ascorbic acid-induced manganese superoxide dismutase after 1 hr by pyrogallol autoxidation method; format: functional, subcellular; conditions: Capra hircus; Heart; Mitochrondria
# Mitochondria [25] = test: Antioxidant activity in goat cardiac mitochondria assessed as inhibition of CuCl2/ascorbic acid-induced protein carbonyl content at 8.25 uM after 1 hr by DNPH assay relative to control; format: functional, subcellular; conditions: Capra hircus, Heart, Mitochrondria
# Mitochondria [26] = test: Antioxidant activity in goat cardiac mitochondria assessed as reversal of CuCl2/ascorbic acid-induced reduction in SDH level at 66 uM using succinate as substrate after 1 hr by spectrophotometric analysis relative to control; format: functional, subcellular; conditions: Capra hircus, Heart, Mitochrondria
# [27] = Binding affinity to Cu2+ assessed as binding constant K2 at 66 uM in presence of CuCl2 by isothermal titration calorimetry
# Mitochondria [28] = test: Protective activity in goat cardiac mitochondria assessed as inhibition of CuCl2/ascorbic acid-induced convoluted membranes at 66 uM incubated for 1 hr by scanning electron microscopy; format: functional, subcellular; conditions: Capra hircus, Heart, Mitochrondria
# [29] = Antioxidant activity in pH 7.4 phosphate buffer assessed as DPPH radical scavenging activity after 30 mins by spectrophotometric analysis; format: functional
# [30] = Effect on ICDH levels in goat cardiac mitochondria at 8.25 to 66 uM using isocitrate as substrate after 1 hr; format: ADME, subcellular, Capra hircus, Heart, Mitochrondria
# [31] = Binding affinity to Cu2+ assessed as decrease in heat change at 66 uM in presence of CuCl2 by isothermal titration calorimetry
# [32] = Effect on SDH levels in goat cardiac mitochondria at 8.25 to 66 uM using succinate as substrate after 1 hr by spectrophotometric analysis; format: ADME, subcellular, Capra hircus, Heart, Mitochrondria
# Mitochondria [33] = test: Antioxidant activity in goat cardiac mitochondria assessed as reversal of CuCl2/ascorbic acid-induced reduction in alpha-KGDH level at 33 uM using alpha-ketoglutarate as substrate after 1 hr relative to control; format: functional, subcellular; conditions: Capra hircus, Heart, Mitochrondria
# Mitochondria [34] = test: as §1, with “at 8.25 uM” for “incubated for 1 hr”, “analysis (reference value: 72.41%)” for “analysis”; format: functional, subcellular; design: scale not given: the % may be the effect or the level left; conditions: Capra hircus, Heart, Mitochrondria
compound,measurement,setting,value
CCOC(=O)c1c(-c2ccc(O)c(OC)c2)cn2c1c(=O)oc1ccccc12,inhibition,Mitochondria [1],41.6%
same,Activity,Capra hircus [2],Active
same,inhibition (INH),[3],Not Active
same,K,[4],8.37 ×10⁴ /M
same,fold change (FC),Mitochondria [5],6.3
same,K,[6],4.6 ×10³ /M
same,inhibition,Mitochondria [7],28.2%
same,Activity,Capra hircus [8],Active
same,Activity,Mitochondria [9],85.4%
same,Activity,Mitochondria [10],Dose-dependent effect
same,fold change (FC),Mitochondria [11],3.52
same,fold change (FC),Mitochondria [12],2.08
same,inhibition,Mitochondria [13],64.8%
same,fold change (FC),Mitochondria [14],3.82
same,fold change (FC),Mitochondria [15],2.94
same,K,[16],9 ×10⁴ /M
same,Activity,Mitochondria [17],85.2%
same,Activity,Capra hircus [18],Active
same,Activity,[19],Dose-dependent effect
same,Ratio IC50,[20],0.78
same,inhibition,Mitochondria [21],60.9%
same,Activity,Mitochondria [22],51.7%
same,Activity,[23],Dose-dependent effect
same,Activity,Mitochondria [24],Dose-dependent effect
same,inhibition,Mitochondria [25],21.9%
same,fold change (FC),Mitochondria [26],5
same,K,[27],9.55 ×10⁴ /M
same,Activity,Mitochondria [28],Active
same,Activity,[29],Dose-dependent effect
same,IC50,[29],46.4 µM
same,MEC,[29],66 µM
same,Activity,[30],Non-Toxic
same,Activity,[31],Active
same,Activity,[32],Non-Toxic
same,fold change (FC),Mitochondria [33],2.74
same,Activity,Mitochondria [34],56.2%

# — ChEMBL document CHEMBL4359836, “Synthesis and Biological Assessment of Pyrrolobenzoxazine Scaffold as a Potent Antioxidant” (J Med Chem, 2019)
